Experimental data: patent US9023858B2, “Substituted pyrido[2,3-d]pyrimidines as delta-5-desaturase inhibitors” (Takeda Pharmaceutical Company Limited, priority 2010, dated 2015)
Counter-ions that a name gives are not always drawn.

Experiments:
[1] = molecular target: T1, delta-5-desaturase (Rattus norvegicus, UniProt Q920R3); test: Inhibitory activity on binding of [3H]-labelled Reference Example 1 ligand to delta-5-desaturase (rat liver microsome fraction); details: test compound 10 μM; for inhibition at 10 µM: 3 nM tritiated ligand of Reference Example 1, read-out: Binding inhibitory activity against compound bind to delta-5-desaturase Binding inhibition rate (%) at 10 μM
T1 construct: a rat liver microsome fraction (10 μl) diluted to 3 mg/ml with a microsome buffer; from tissue; host or cells: rat liver microsome fraction
Description: Inhibitory Activity on Binding of N-[2-({4-oxo-3-[4-(2,2,2-trifluoroethoxy)[2,6-^3H2]phenyl]-3,4-dihydrothieno[3,4-d]pyrimidin-2-yl}sulfanyl)ethyl]acetamide (Reference Example 1) to delta-5-desaturase)
All tests were performed at room temperature at 200 μL/well. A rat liver microsome fraction (30 μg/well) was preincubated with a test compound at a final concentration of 10 μM for 15 min in an assay buffer (10 mM Tris-HCl (pH 7.5), 100 mM KCl, 10 mM NaF, 3 mM MgCl2, 0.005% Tween20 and 1 mM GSH). N-[2-({4-oxo-3-[4-(2,2,2-trifluoroethoxy) [2,6-^3H2]phenyl]-3,4-dihydrothieno[3,4-d]pyrimidin-2-yl}sulfanyl)ethyl]acetamide was added to a final concentration of 3 nM and the mixture was incubated for 150 min. For Bound/Free separation, the membrane fraction was added on a GF/C glass filter using a cell harvester. The GF/C glass filter was washed 5 times with 300 μl of ice-cooled assay buffer (without 0.005% Tween) to separate the ligand bound to delta-5-desaturase. 50 μl of MicroScinti 0 was added, and the radioactivity on the filter was measured by TopCount. To evaluate non-specific binding, 10 μM N-[2-({4-oxo-3-[4-(2,2,2-trifluoroethoxy)phenyl]-3,4-dihydrothieno[3,4-d]pyrimidin-2-yl}sulfanyl)ethyl]acetamide was used. The inhibitory rate (%) of the test compound (10 μM) on the binding of N-[2-({4-oxo-3-[4-(2,2,2-trifluoroethoxy) [2,6-^3H2]phenyl]-3,4-dihydrothieno[3,4-d]pyrimidin-2-yl}sulfanyl)ethyl]acetamide to delta-5-desaturase was determined.

[2] = molecular target: T2, delta-5-desaturase (Homo sapiens, UniProt O60427); test: Delta-5-desaturase inhibitory activity using HepG2 cell; format: cell-based; details: test compound 1 μM
T2 construct: endogenous in cells; host or cells: HepG2
Description: Delta-5-Desaturase Inhibitory Activity Using HepG2 Cell
HepG2 was plated on a 96-well plate at 1×10^5 cells/well, and cultured overnight in DMEM (Dulbecco's modified Eagle medium) containing 10% FBS (fetal bovine serum). After washing (200 μL×2) with PBS (phosphate buffered saline), 40 μL of a reaction medium (DMEM, penicillin/streptomycin, 0.3% BSA) containing the test compound was added, and the mixture was preincubated in a CO2 incubator at 37° C. for 30 min. The reaction was started by adding a reaction medium (20 μL) containing 0.1 μCi [^14C]Eicosatrienoic acid, and the mixture was incubated in a CO2 incubator at 37° C. Incubation was performed for 3 hr, the cells were washed twice with 200 μL of PBS, detached with 50 μL of trypsin-EDTA and placed on a 96-deep well block. Furthermore, 20 μL of 2.5N NaOH was added, the plate was sealed and incubated overnight at 55° C. to allow saponification. The fatty acid extraction included acidifying with 10 μL of formic acid, adding chloroform:methanol (1:4), stirring, and further adding 200 μL of pure water to separate into two layers. The operation after development with TLC followed the method of detection system using TLC in a system using a rat liver microsome. A delta-5-desaturase inhibitory rate (%) of 1 μM test compound was determined.

[3] = molecular target: T1, delta-5-desaturase; test: Delta-5-desaturase inhibitory activity using rat liver microsome; format: biochemical; details: test compound 10 μM
Description: Delta-5-Desaturase Inhibitory Activity Using Rat Liver Microsome
The inhibitory activity of the test compound on delta-5-desaturase was measured by the method described below. To a solution of the test compound in DMSO prepared in advance was secondarily diluted with a buffer (300 mM NaH2PO4 [pH 7.4], 450 mM KCl, 30 mM NaF, 9 mM MgCl2, 4.5 mM glutathione [reduced form], 0.3% BSA [fatty acid free, SIGMA]) to give an assay buffer. The assay buffer (10 μl) was dispensed to a polypropylene deep 96-well block, and a rat liver microsome fraction (10 μl) diluted to 3 mg/ml with a microsome buffer (10 mM Tris-HCl [pH 7.4], 1 mM EDTA, 250 mM sucrose) was added. The enzyme reaction was started by adding 9 mM NADH, 9 mM ATP, 0.9 mM CoA, 10 μCi/ml (8E,11E,14E)-(1-^14C)eicosa-8,11,14-trienoic acid (PerkinElmer Inc.) (10 μl). The enzyme reaction was performed for 120 min at room temperature, and discontinued by the addition of 10 μl of 2.5M NaOH. After discontinuation of the reaction, the plate was sealed and incubated overnight at 55° C. to allow saponification. The fatty acid was extracted with solvent based on the Bligh & Dyer method described in Can. J. Biochem. Physiol., vol. 37, page 911 (1959) by adding formic acid:methanol:chloroform (1:6:3) (200 μl), maintaining the single layer state, sufficiently stirring the mixture and adding pure water (120 μl) for separation into two layers. The lower chloroform layer (10 μl) was spotted on a reversed-phase TLC plate (RP-18, 1154230001, Merck Japan, Ltd.), developed with acetonitrile:pure water:acetic acid (95:4.5:0.5), and the dried TLC plate was transcribed on Imaging Plate (Fuji Photo Film Co., Ltd.) for 5 hr or longer. The detection was performed using BAS-5000 (Fuji Photo Film Co., Ltd.), and the obtained spot image was numerically converted by Multi Gauge Ver2.3 (Fuji Photo Film Co., Ltd.) and a delta-5-desaturase inhibitory rate (%) of 10 μM test compound was determined.

T2 sequence (O60427 whole entry): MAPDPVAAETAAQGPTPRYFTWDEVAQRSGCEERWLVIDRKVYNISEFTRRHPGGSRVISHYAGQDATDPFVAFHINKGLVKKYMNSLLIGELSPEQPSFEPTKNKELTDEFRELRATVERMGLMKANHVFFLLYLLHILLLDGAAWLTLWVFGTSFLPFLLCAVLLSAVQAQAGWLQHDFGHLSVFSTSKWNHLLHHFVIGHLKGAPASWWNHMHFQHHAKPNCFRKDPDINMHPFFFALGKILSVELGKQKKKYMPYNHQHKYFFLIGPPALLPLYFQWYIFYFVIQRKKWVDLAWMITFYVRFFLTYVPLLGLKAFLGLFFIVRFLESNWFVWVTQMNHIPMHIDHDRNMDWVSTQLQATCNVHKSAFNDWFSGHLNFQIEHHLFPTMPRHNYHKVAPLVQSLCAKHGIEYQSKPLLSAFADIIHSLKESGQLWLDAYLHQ
T1 sequence (Q920R3 whole entry): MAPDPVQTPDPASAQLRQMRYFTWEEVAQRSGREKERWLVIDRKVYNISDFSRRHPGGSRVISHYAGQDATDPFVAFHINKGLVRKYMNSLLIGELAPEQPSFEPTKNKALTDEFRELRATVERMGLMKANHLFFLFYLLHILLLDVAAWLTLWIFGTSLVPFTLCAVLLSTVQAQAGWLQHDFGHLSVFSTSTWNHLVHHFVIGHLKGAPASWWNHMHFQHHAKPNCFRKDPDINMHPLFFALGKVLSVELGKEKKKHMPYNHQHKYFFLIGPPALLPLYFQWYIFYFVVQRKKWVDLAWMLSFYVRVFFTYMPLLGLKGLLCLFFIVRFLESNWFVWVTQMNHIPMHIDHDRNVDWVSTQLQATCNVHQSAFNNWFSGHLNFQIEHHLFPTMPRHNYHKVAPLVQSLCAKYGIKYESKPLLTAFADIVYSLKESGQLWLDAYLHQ

| inhibition at 10 µM [1] [%] | inhibition at 1 µM [2] [%] | inhibition at 10 µM [3] [%] | Binding inhibitory activity against compound bind to delta-5-desaturase Binding inhibition rate (%) at 10 μM ([1]; 3 nM tritiated ligand of Reference Example 1, sodium salt) [%] | delta-5-desaturase inhibitory activity (at liver microsome) Inhibitory activity (%) at 10 μM ([3]; sodium salt, 10 µM) [%] | SMILES |
| --- | --- | --- | --- | --- | --- |
| 88 | 93 | 98 | – | – | CCOc1nc2c(OCCOC)nccc2c(=O)n1-c1ccc(OCC(F)(F)F)cc1 [Example 34, 2-ethoxy-8-(2-methoxyethoxy)-3-[4-(2,2,2-trifluoroethoxy)phenyl]pyrido[3,4-d]pyrimidin-4(3H)-one] |
| 98 | 88 | 96 | – | – | CCOc1nc2c(=O)[nH]ccc2c(=O)n1-c1ccc(OCC(F)(F)F)cc1 [Example 32, 2-ethoxy-3-[4-(2,2,2-trifluoroethoxy)phenyl]-3,7-dihydropyrido[3,4-d]pyrimidine-4,8-dione] |
| 84 | 95 | 92 | – | – | COc1nc2[nH]c(=O)ccc2c(=O)n1-c1ccc(OCC(F)(F)F)cc1 [Example 18, 2-methoxy-3-[4-(2,2,2-trifluoroethoxy)phenyl]pyrido[2,3-d]pyrimidine-4,7(3H,8H)-dione] |
| 99 | 103 | 105 | – | – | O=c1ccc2c(=O)n(-c3ccc(OCC(F)(F)F)cc3)c(OCC(F)(F)CO)nc2[nH]1 [Example 17, 2-(2,2-difluoro-3-hydroxypropoxy)-3-[4-(2,2,2-trifluoroethoxy)phenyl]pyrido[2,3-d]pyrimidine-4,7(3H,8H)-dione] |
| – | – | – | 96 | 98 | CCSc1nc2[nH]c(=O)ccc2c(=O)n1-c1ccc(OCC(F)(F)F)cc1 [Example 7, 2-(ethylsulfanyl)-3-[4-(2,2,2-trifluoroethoxy)phenyl]pyrido[2,3-d]pyrimidine-4,7(3H,8H)-dione sodium salt] |
| 96 | 107 | 102 | – | – | CCSc1nc2nc(N)ccc2c(=O)n1-c1ccc(OCC(F)(F)F)cc1 [Example 26, 7-amino-2-(ethylsulfanyl)-3-[4-(2,2,2-trifluoroethoxy)phenyl]pyrido[2,3-d]pyrimidin-4(3H)-one] |
| 97 | 93 | 99 | – | – | CCSc1nc2nc(OC)cnc2c(=O)n1-c1ccc(OCC(F)(F)F)cc1 [Example 37, 2-(ethylsulfanyl)-7-methoxy-3-[4-(2,2,2-trifluoroethoxy)phenyl]pteridin-4(3H)-one] |
| 98 | 96 | 96 | – | – | O=c1[nH]ccc2c(=O)n(-c3ccc(OCC(F)(F)F)cc3)c(OCC(F)(F)F)nc12 [Example 31, 2-(2,2,2-trifluoroethoxy)-3-[4-(2,2,2-trifluoroethoxy)phenyl]-3,7-dihydropyrido[3,4-d]pyrimidine-4,8-dione] |
| 95 | 109 | 101 | – | – | CCSc1nc2c(c(=O)n1-c1ccc(OCC(F)(F)F)cc1)CCC(=O)N2 [Example 24, 2-(ethylsulfanyl)-3-[4-(2,2,2-trifluoroethoxy)phenyl]-5,6-dihydropyrido[2,3-d]pyrimidine-4,7(3H,8H)-dione] |
| 93 | – | 97 | – | – | CSc1nc2c(c(=O)n1-c1ccc(OCC(F)(F)F)cc1)CCC(=O)N2 [Example 21, 2-(methylsulfanyl)-3-[4-(2,2,2-trifluoroethoxy)phenyl]-5,6-dihydropyrido[2,3-d]pyrimidine-4,7(3H,8H)-dione] |
| 85 | – | 90 | – | – | CCNc1nc2[nH]c(=O)ccc2c(=O)n1-c1ccc(OCC(F)(F)F)cc1 [Example 19, 2-(ethylamino)-3-[4-(2,2,2-trifluoroethoxy)phenyl]pyrido[2,3-d]pyrimidine-4,7(3H,8H)-dione] |
| 93 | 98 | 97 | – | – | CCSc1nc2nc(C(N)=O)ccc2c(=O)n1-c1ccc(OCC(F)(F)F)cc1 [Example 27, 2-(ethylsulfanyl)-4-oxo-3-[4-(2,2,2-trifluoroethoxy)phenyl]-3,4-dihydropyrido[2,3-d]pyrimidine-7-carboxamide] |
| 97 | 97 | 104 | – | – | CC(C)Oc1nc2[nH]c(=O)ccc2c(=O)n1-c1ccc(OCC(F)(F)F)cc1 [Example 20, 2-(1-methylethoxy)-3-[4-(2,2,2-trifluoroethoxy)phenyl]pyrido[2,3-d]pyrimidine-4,7(3H,8H)-dione] |
| 96 | 97 | 99 | – | – | CCOc1nc2[nH]c(=O)ccc2c(=O)n1-c1ccc(OCC(F)(F)F)cc1 [Example 9, 2-ethoxy-3-[4-(2,2,2-trifluoroethoxy)phenyl]pyrido[2,3-d]pyrimidine-4,7(3H,8H)-dione] |
| 98 | 92 | 98 | – | – | CCSc1nc2c(c(=O)n1-c1ccc(OCC(F)(F)F)cc1)SCC(=O)N2 [Example 25, 2-(ethylsulfanyl)-3-[4-(2,2,2-trifluoroethoxy)phenyl]-3H-pyrimido[5,4-b][1,4]thiazine-4,7(6H,8H)-dione] |
| 101 | 92 | 101 | – | – | CCSc1nc2c(=O)n(C)ccc2c(=O)n1-c1ccc(OCC(F)(F)F)cc1 [Example 36, 2-(ethylsulfanyl)-7-methyl-3-[4-(2,2,2-trifluoroethoxy)phenyl]-3,7-dihydropyrido[3,4-d]pyrimidine-4,8-dione] |
| 89 | 92 | – | – | – | CCCc1nc2c(c(=O)n1-c1ccc(OCC(F)(F)F)cc1)CCC(=O)N2 [Example 40, 2-propyl-3-[4-(2,2,2-trifluoroethoxy)phenyl]-5,6-dihydropyrido[2,3-d]pyrimidine-4,7(3H,8H)-dione] |
| – | 103 | 103 | – | – | COCC(F)(F)COc1nc2[nH]c(=O)ccc2c(=O)n1-c1ccc(OCC(F)(F)F)cc1 [Example 14, 2-(2,2-difluoro-3-methoxypropoxy)-3-[4-(2,2,2-trifluoroethoxy)phenyl]pyrido[2,3-d]pyrimidine-4,7(3H,8H)-dione] |
| 97 | – | 102 | – | – | CCCSc1nc2nc(OC)ccc2c(=O)n1-c1ccc(OCC(F)(F)F)cc1 [Example 3, 7-methoxy-2-(propylsulfanyl)-3-[4-(2,2,2-trifluoroethoxy)phenyl]pyrido[2,3-d]pyrimidin-4(3H)-one] |
